Laboratory results as given in ChEMBL document CHEMBL3997794, “Design and synthesis of benzodiazepine analogs as isoform-selective human lysine deacetylase inhibitors” (Eur J Med Chem, 2017).

Key:
[1] = biological target: T1, Protein deacetylase HDAC6 (Homo sapiens, UniProt Q9UBN7); experiment: Inhibition of human KDAC6 using FITC-labeled histone H4 acetylated peptide as substrate after 60 mins by fluorescence assay
T1 sequence (Q9UBN7 whole entry): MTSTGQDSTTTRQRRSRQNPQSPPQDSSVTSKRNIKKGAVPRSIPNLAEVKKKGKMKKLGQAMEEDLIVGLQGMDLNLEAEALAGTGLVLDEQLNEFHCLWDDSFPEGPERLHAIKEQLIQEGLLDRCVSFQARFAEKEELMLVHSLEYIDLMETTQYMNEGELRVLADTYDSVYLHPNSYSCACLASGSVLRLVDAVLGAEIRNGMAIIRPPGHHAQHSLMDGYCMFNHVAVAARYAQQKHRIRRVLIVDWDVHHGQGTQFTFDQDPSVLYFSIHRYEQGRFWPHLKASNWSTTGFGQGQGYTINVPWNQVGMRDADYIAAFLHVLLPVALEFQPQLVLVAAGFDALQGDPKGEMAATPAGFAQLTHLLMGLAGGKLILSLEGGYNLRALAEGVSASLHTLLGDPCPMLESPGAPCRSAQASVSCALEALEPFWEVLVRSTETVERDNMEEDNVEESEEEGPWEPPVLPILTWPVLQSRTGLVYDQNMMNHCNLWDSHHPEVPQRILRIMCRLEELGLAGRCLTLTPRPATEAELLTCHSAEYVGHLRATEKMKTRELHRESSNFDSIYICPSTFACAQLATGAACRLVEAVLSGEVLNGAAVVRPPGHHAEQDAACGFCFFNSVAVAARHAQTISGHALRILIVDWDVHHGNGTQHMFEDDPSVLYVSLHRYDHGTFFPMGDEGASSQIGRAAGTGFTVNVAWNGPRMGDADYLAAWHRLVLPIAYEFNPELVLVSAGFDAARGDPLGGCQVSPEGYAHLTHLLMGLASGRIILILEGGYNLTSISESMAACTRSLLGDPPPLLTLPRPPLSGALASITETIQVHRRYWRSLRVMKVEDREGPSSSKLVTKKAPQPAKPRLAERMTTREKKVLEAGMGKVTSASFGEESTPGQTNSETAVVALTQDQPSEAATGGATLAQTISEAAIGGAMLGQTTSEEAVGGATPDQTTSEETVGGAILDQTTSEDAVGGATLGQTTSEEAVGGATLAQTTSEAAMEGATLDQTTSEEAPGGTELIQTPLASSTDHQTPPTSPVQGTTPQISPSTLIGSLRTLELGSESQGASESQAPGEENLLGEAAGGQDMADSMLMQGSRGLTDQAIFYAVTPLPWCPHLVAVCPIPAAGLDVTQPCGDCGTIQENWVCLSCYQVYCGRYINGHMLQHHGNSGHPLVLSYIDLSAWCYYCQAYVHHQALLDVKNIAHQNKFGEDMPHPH

Histone deacetylase 1 [2] = biological target: T2, Histone deacetylase 1 (Homo sapiens, UniProt Q13547); experiment: Inhibition of human KDAC1 using substrate A after 60 mins by fluorescence assay
T2 sequence (Q13547 whole entry): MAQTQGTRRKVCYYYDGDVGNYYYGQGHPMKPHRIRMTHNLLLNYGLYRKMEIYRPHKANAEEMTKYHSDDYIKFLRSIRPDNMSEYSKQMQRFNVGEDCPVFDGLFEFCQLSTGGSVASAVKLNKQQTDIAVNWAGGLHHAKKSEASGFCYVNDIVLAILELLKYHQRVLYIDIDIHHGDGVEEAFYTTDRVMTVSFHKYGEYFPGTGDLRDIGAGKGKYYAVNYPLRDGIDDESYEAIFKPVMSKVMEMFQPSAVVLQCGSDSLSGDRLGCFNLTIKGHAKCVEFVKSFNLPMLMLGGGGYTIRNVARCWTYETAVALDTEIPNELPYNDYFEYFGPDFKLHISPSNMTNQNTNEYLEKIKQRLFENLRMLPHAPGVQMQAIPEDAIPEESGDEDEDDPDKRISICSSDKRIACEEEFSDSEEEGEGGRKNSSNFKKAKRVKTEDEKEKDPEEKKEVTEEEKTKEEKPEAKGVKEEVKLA

[3] = biological target: T3, Protein deacetylase HDAC6 (Homo sapiens) (UniProt Q9UBN7); settings: at 30 µM
T3 sequence (whole entry): T1 sequence (Q9UBN7 whole entry)
Description: Inhibition of human KDAC6 at 30 uM using FITC-labeled histone H4 acetylated peptide as substrate after 60 mins by fluorescence assay relative to control

Histone deacetylase 3 [4] = biological target: T4, Histone deacetylase 3 (Homo sapiens, UniProt O15379); experiment: Inhibition of human KDAC3 at 30 uM using FITC-labeled p53 acetylated peptide as substrate after 60 mins by fluorescence assay relative to control
T4 sequence (O15379 whole entry): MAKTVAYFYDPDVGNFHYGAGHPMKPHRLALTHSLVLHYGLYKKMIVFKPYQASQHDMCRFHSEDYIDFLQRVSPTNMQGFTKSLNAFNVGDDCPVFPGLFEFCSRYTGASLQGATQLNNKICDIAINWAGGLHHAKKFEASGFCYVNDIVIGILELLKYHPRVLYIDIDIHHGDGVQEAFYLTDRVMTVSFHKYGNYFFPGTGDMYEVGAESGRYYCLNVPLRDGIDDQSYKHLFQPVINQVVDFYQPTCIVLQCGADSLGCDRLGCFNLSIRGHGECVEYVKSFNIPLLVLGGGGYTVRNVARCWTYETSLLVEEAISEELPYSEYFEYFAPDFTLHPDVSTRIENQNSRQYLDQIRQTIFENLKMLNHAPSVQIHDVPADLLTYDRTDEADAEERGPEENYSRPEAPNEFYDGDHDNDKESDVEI

Histone deacetylase 3 [5] = biological target: T4, Histone deacetylase 3; experiment: Inhibition of human KDAC3 using FITC-labeled p53 acetylated peptide as substrate after 60 mins by fluorescence assay
Histone deacetylase 8 = biological target: T5, Histone deacetylase 8 (Homo sapiens, UniProt Q9BY41); experiment: Inhibition of human KDAC8 after 60 mins by fluorescence assay
T5 sequence (Q9BY41 whole entry): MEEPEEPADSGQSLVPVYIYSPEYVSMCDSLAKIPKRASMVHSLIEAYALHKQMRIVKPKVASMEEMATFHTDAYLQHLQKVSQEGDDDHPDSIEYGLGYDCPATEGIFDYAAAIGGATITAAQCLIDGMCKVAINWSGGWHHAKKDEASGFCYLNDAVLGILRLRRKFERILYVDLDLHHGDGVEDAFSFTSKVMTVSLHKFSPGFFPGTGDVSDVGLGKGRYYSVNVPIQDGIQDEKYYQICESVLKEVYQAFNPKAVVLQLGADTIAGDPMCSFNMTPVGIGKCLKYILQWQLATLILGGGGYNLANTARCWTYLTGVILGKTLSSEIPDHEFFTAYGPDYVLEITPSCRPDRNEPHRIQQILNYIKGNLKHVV

Histone deacetylase 1 [6] = biological target: T2, Histone deacetylase 1; experiment: Inhibition of human KDAC1 at 30 uM using substrate A after 60 mins by fluorescence assay relative to control
[7] = biological target: T6, Histone deacetylase 8 (Homo sapiens) (UniProt Q9BY41); experiment: Inhibition of human KDAC8 at 30 uM after 60 mins by fluorescence assay relative to control
T6 sequence (whole entry): T5 sequence (Q9BY41 whole entry)

Structure (SMILES)	IC50 [1] [nM]	IC50 (Histone deacetylase 1 [2]) [µM]	inhibition [3] [%]	inhibition (Histone deacetylase 3 [4]) [%]	IC50 (Histone deacetylase 3 [5]) [µM]	IC50 (Histone deacetylase 8) [µM]	inhibition (Histone deacetylase 1 [6]) [%]	inhibition [7] [%]
O=C1CN=C(c2ccccc2)c2ccccc2N1 [RO-052921]	> 30000	> 30	0	3.45	> 30	> 30	7.95	2.82
O=C(CCCCN1C(=O)[C@H](Cc2cc3ccccc3[nH]2)N=C(c2ccccc2)c2ccccc21)NO	1950	16.8	93.2	98.9	1.01	> 30	60	34.1
O=C(CCCNC(=O)C[C@@H]1N=C(c2ccccc2)c2ccccc2NC1=O)NO	1760	17.4	95	90.7	3.21	> 30	63.5	45.1
CC(C)(C)SC[C@H]1N=C(c2ccccc2)c2ccccc2N(CCCCC(=O)O)C1=O	> 30000	> 30	2.08	0	> 30	> 30	12.1	8.31
CC(C)(C)OC(=O)CC[C@H]1N=C(c2ccccc2)c2ccccc2NC1=O	> 30000	> 30	4.3	3.85	> 30	> 30	10.5	4.35
O=C(CCCCN1C(=O)[C@@H](CS)N=C(c2ccccc2)c2ccccc21)NO	580	0.46	96.9	100	0.18	8.11	97.3	81.2
COC(=O)CCCCN1C(=O)[C@H](Cc2ccc(OC(C)(C)C)cc2)N=C(c2ccccc2)c2ccccc21	> 30000	> 30	0	0.98	> 30	> 30	8.72	0
